Reference: patent publication US20230085307A1, “PYRIDAZINONE COMPOUND AND HERBICIDE” (NISSAN CHEMICAL CORPORATION, priority 2019, published 2023)

What was measured:
false cleavers = test: Test Example 4: herbicidal effect by soil treatment (Table 19, symbol Q); assay type: in vivo, false cleavers (Galium spurium)
Method in brief: (§1)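 Applied as a water-diluted emulsion, the compound was sprayed onto soil covering newly sown seeds. Evaluation came three weeks after application, in a greenhouse held at 25° C. to 30° C.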

transplanted rice = test: Test Example 1: effect on crop, application before weed generation under submerged conditions (Table 16, symbol a); assay type: in vivo; conditions: amount of applied herbicide 320 g/ha
Method in brief: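 Alluvial soil was flooded to 4 cm depth, weed seeds were sown mixed and 2.5-leaf rice seedlings were transplanted. On sowing day, the compound's emulsion, diluted in water to a set dose, was applied to the water surface. Plants grew at 25–30 °C and were scored 0–5 after three weeks.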

directly sowed rice = test: Test Example 3: effect on crop by foliage application, Wagner pot (Table 18, symbol b); assay type: in vivo; conditions: amount of applied herbicide 320 g/ha
Method in brief: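 Plants were sown in alluvial soil held under 0.1–0.5 cm standing water and grown 14 days in a greenhouse at 25–30 °C. An emulsifiable formulation, water-diluted to the set dose, was then sprayed onto the foliage, and effects were scored three weeks later using previously defined criteria.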

corn [1] = test: Test Example 4: effect on crop by soil treatment (Table 19, symbol c); assay type: in vivo; conditions: amount of applied herbicide 320 g/ha
Method in brief: as §1

soybean [2] = test: Test Example 4: effect on crop by soil treatment (Table 19, symbol d); assay type: in vivo; conditions: amount of applied herbicide 320 g/ha
Method in brief: as §1

wheat [3] = test: Test Example 4: effect on crop by soil treatment (Table 19, symbol e); assay type: in vivo; conditions: amount of applied herbicide 320 g/ha
Method in brief: as §1

beet [4] = test: Test Example 4: effect on crop by soil treatment (Table 19, symbol f); assay type: in vivo; conditions: amount of applied herbicide 320 g/ha
Method in brief: as §1

rapeseed [5] = test: Test Example 4: effect on crop by soil treatment (Table 19, symbol g); assay type: in vivo; conditions: amount of applied herbicide 320 g/ha
Method in brief: as §1

corn [6] = test: Test Example 5: effect on crop by foliage application, plastic box (Table 20, symbol c); assay type: in vivo; conditions: 320 g/ha, three weeks after application
Method in brief: (§2)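 Sow seeds spot-wise in sterilized diluvial soil; cover with ~1.5 cm soil. Grow 14 days in greenhouse, 25° C. to 30° C. Spray foliage with emulsion diluted to predetermined amount. Rate effect after 3 weeks.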

soybean [7] = test: Test Example 5: effect on crop by foliage application, plastic box (Table 20, symbol d); assay type: in vivo; conditions: 320 g/ha, three weeks after application
Method in brief: as §2

wheat [8] = test: Test Example 5: effect on crop by foliage application, plastic box (Table 20, symbol e); assay type: in vivo; conditions: 320 g/ha, three weeks after application
Method in brief: as §2

beet [9] = test: Test Example 5: effect on crop by foliage application, plastic box (Table 20, symbol f); assay type: in vivo; conditions: 320 g/ha, three weeks after application
Method in brief: as §2

rapeseed [10] = test: Test Example 5: effect on crop by foliage application, plastic box (Table 20, symbol g); assay type: in vivo; conditions: 320 g/ha, three weeks after application
Method in brief: as §2

[11] = amount of applied herbicide 320 g/ha

Compound | herbicidal effect, Q: false cleavers (false cleavers; [11]) | Q: false cleavers, herbicidal effect grade (false cleavers; [11]) | further results
CCCC(=O)Oc1c(C)nn(C)c(=O)c1-c1c(-c2ccc(F)cc2)sc2cc(F)ccc12 [3-002] | 1 (Herbicidal rate of 5% or more and less than 20%) |  | 
COc1ccccc1-c1sc2cc(F)ccc2c1-c1c(O)c(C)nn(C)c1=O [3-003] | 4 (Herbicidal rate of 70% or more and less than 90%) |  | 
CCOc1ccccc1-c1sc2cc(F)ccc2c1-c1c(O)c(C)nn(C)c1=O [3-006] | 5 (Herbicidal rate of 90% or more (almost completely withered)) |  | 
CCCC(=O)Oc1c(C)nn(C)c(=O)c1-c1c(-c2ccc(OC)cc2)sc2cc(F)ccc12 [3-008] | 2 (Herbicidal rate of 20% or more and less than 40%) |  | 
COc1cc(F)ccc1-c1sc2cc(F)ccc2c1-c1c(O)c(C)nn(C)c1=O [3-009] | 5 (Herbicidal rate of 90% or more (almost completely withered)) |  | 
CCCC(=O)Oc1c(C)nn(C)c(=O)c1-c1c(-c2ccc(F)cc2OC)sc2cc(F)ccc12 [3-010] | 5 (Herbicidal rate of 90% or more (almost completely withered)) |  | 
CCOc1cc(F)ccc1-c1sc2cc(F)ccc2c1-c1c(O)c(C)nn(C)c1=O [3-011] | 5 (Herbicidal rate of 90% or more (almost completely withered)) |  | 
CCCC(=O)Oc1c(C)nn(C)c(=O)c1-c1c(-c2ccc(F)cc2OCC)sc2cc(F)ccc12 [3-012] | 5 (Herbicidal rate of 90% or more (almost completely withered)) |  | 
Cc1nn(C)c(=O)c(-c2c(-c3ccc4c(c3)OCCO4)sc3cc(F)ccc23)c1O [3-013] | 4 (Herbicidal rate of 70% or more and less than 90%) |  | 
CCCC(=O)Oc1c(C)nn(C)c(=O)c1-c1c(-c2ccc3c(c2)OCCO3)sc2cc(F)ccc12 [3-014] | 2 (Herbicidal rate of 20% or more and less than 40%) |  | 
CCOc1ccccc1-c1sc2cc(C)ccc2c1-c1c(O)c(C)nn(C)c1=O [3-053] |  | 5 (Herbicidal rate of 90% or more (almost completely withered)) | 
CCOc1cc(F)ccc1-c1sc2cc(C)ccc2c1-c1c(O)c(C)nn(C)c1=O [3-057] |  | 3 (Herbicidal rate of 40% or more and less than 70%) | 
CCCC(=O)Oc1c(C)nn(C)c(=O)c1-c1c(-c2ccc(F)cc2OCC)sc2cc(C)ccc12 [3-058] |  | 1 (Herbicidal rate of 5% or more and less than 20%) | 
CCCC(=O)Oc1c(C)nn(C)c(=O)c1-c1c(-c2ccccc2)sc2cc(OC)ccc12 [3-062] |  | 2 (Herbicidal rate of 20% or more and less than 40%) | 
CCCC(=O)Oc1c(C)nn(C)c(=O)c1-c1c(-c2ccc(OC)cc2)sc2cc(OC)ccc12 [3-069] |  | 0 (Herbicidal rate of 5% or less (almost no effect)) | 
CCOc1ccc(-c2sc3cc(OC)ccc3c2-c2c(O)c(C)nn(C)c2=O)cc1 [3-072] |  | 1 (Herbicidal rate of 5% or more and less than 20%) | 

Compound | herbicidal effect, Q: false cleavers (false cleavers; [11]) | Q: false cleavers, herbicidal effect grade (false cleavers; [11]) | further results
COc1ccc2c(-c3c(O)c(C)nn(C)c3=O)c(-c3ccc(F)cc3OC)sc2c1 [3-076] |  | 4 (Herbicidal rate of 70% or more and less than 90%) | 
CCCC(=O)Oc1c(C)nn(C)c(=O)c1-c1c(-c2ccc(F)cc2OC)sc2cc(OC)ccc12 [3-077] |  | 2 (Herbicidal rate of 20% or more and less than 40%) | 
CCOc1ccccc1-c1sc2cc(OC)ccc2c1-c1c(O)c(C)nn(CC)c1=O [3-085] |  | 0 (Herbicidal rate of 5% or less (almost no effect)) | 
CCCC(=O)Oc1c(C)nn(C)c(=O)c1-c1c(-c2ccccc2OC)sc2cc(OCC)ccc12 [3-090] |  |  | Q: false cleavers, herbicidal effect grade (false cleavers; amount of applied herbicide 310 g/ha): 5 (Herbicidal rate of 90% or more (almost completely withered))
CCOc1ccc2c(-c3c(O)c(C)nn(C)c3=O)c(-c3ccc(OC)cc3)sc2c1 [3-091] |  | 5 (Herbicidal rate of 90% or more (almost completely withered)) | 
CCCC(=O)Oc1c(C)nn(C)c(=O)c1-c1c(-c2ccc(OC)cc2)sc2cc(OCC)ccc12 [3-092] |  | 4 (Herbicidal rate of 70% or more and less than 90%) | 
CCOc1ccc2c(-c3c(O)c(C)nn(C)c3=O)c(-c3ccc(F)cc3OCC)sc2c1 [3-095] |  | 4 (Herbicidal rate of 70% or more and less than 90%) | 
Cc1nn(C)c(=O)c(-c2c(-c3ccc(Cl)c(F)c3)sc3c(F)cccc23)c1O [4-054] |  |  | Herbicidal effect by soil treatment, Q: false cleavers (false cleavers; [11]): 0 (Herbicidal rate of 5% or less (almost no effect))
Cc1nn(C)c(=O)c(-c2c(-c3ccc(Cl)cc3)sc3c(C)cccc23)c1O [4-102] |  |  | Herbicidal effect by soil treatment, Q: false cleavers (false cleavers; [11]): 0 (Herbicidal rate of 5% or less (almost no effect))
Cc1nn(C)c(=O)c(-c2c(-c3ccc4c(c3)OCCO4)oc3ccccc23)c1O [8-002] |  | 0 (Herbicidal rate of 5% or less (almost no effect)) | 
Cc1nn(C)c(=O)c(-c2c(-c3ccc(OC(C)C)cc3)oc3ccc(F)cc23)c1O [9-025] |  | 0 (Herbicidal rate of 5% or less (almost no effect)) | 
Cc1nn(C)c(=O)c(-c2c(-c3ccc(OCC(C)C)cc3)oc3ccc(F)cc23)c1O [9-027] |  | 0 (Herbicidal rate of 5% or less (almost no effect)) | 
CSc1ccc(-c2oc3ccc(C)cc3c2-c2c(O)c(C)nn(C)c2=O)cc1 [9-055] |  | 0 (Herbicidal rate of 5% or less (almost no effect)) | 
Cc1nn(C)c(=O)c(-c2c(-c3ccc(Cl)cc3)sc3cccc(F)c23)c1O [11-001] |  | 0 (Herbicidal rate of 5% or less (almost no effect)) | 
CCCC(=O)Oc1c(C)nn(C)c(=O)c1-c1c(-c2ccccc2OC)sc2cc(OC)ccc12 [Compound No. 3-066, 5-(6-methoxy-2-(2-methoxyphenyl)benzo[b]thiophen-3-yl)-1,3-dimethyl-6-oxo-1,6-dihydropyridazin-4-yl=(n-butyrate)] |  |  | Q: false cleavers, herbicidal effect grade (false cleavers; amount of applied herbicide 296 g/ha): 2 (Herbicidal rate of 20% or more and less than 40%)
COc1ccc(-c2oc3ccc(F)cc3c2-c2c(O)c(C)nn(C)c2=O)cc1 [Compound No. 9-020, 4-(5-fluoro-2-(4-methoxyphenyl)benzofuran-3-yl)-5-hydroxy-2,6-dimethylpyridazin-3(2H)-one] |  |  | Effect on crop, a: transplanted rice (transplanted rice): 0 (Herbicidal rate of 5% or less (almost no effect)); Effect on crop b (directly sowed rice), foliage application (directly sowed rice): 0 (Herbicidal rate of 5% or less (almost no effect)); c: corn, effect on crop grade (corn [1]): 0 (Herbicidal rate of 5% or less (almost no effect)); d: soybean, effect on crop grade (soybean [2]): 0 (Herbicidal rate of 5% or less (almost no effect)); e: wheat, effect on crop grade (wheat [3]): 2 (Herbicidal rate of 20% or more and less than 40%); f: beet, effect on crop grade (beet [4]): 4 (Herbicidal rate of 70% or more and less than 90%); g: rapeseed, effect on crop grade (rapeseed [5]): 5 (Herbicidal rate of 90% or more (almost completely withered)); effect on crop corn (c) (corn [6]): 0 (Herbicidal rate of 5% or less (almost no effect)); effect on crop soybean (d) (soybean [7]): 3 (Herbicidal rate of 40% or more and less than 70%); effect on crop wheat (e) (wheat [8]): 3 (Herbicidal rate of 40% or more and less than 70%); effect on crop beet (f) (beet [9]): 5 (Herbicidal rate of 90% or more (almost completely withered)); effect on crop rapeseed (g) (rapeseed [10]): 5 (Herbicidal rate of 90% or more (almost completely withered)); melting point: 248 to 250 °C
